One test concerns Candida albicans. Briefly: Antimicrobial activity against Candida albicans. It counts as functional.
The next test concerns Aspergillus niger. Briefly: Antimicrobial activity against Aspergillus niger. It counts as functional.
For test [1], the system named is Trypanosoma cruzi. Briefly: Antitrypanosomal activity against Trypanosoma cruzi trypomastigotes. The format is functional, organism-based.
The subject of test [2] is Trypanosoma cruzi. Kind of test: Antitrypanosomal activity against Trypanosoma cruzi epimastigotes. The format is functional, organism-based.
In a further test the test system is Leishmania amazonensis. Kind of test: Antileishmanial activity against Leishmania amazonensis promastigotes. The format is functional, organism-based.
The subject of the next test is HeLa. Briefly: Growth inhibition of human HeLa cells at 5 uM. The format is functional. Conditions: read-out: GI.

As a reminder, the zone of inhibition is the size of the clear area around the sample on an inoculated plate. A higher zone of inhibition goes with wide suppression of growth. In general, pIC50 refers to −log10 of the IC50, conventionally taken in molar units. The low end stands for a large IC50, the high end for a small IC50.

pIC50: −log10 of the molar value.

On to `C=C(C(=O)OCC)C(O)c1ccc(Cl)cc1` (stereo unspecified), for which the zone of inhibition in the test with Candida albicans came out at 12 mm; with Aspergillus niger it was 11 mm.

In the test with Aspergillus niger, `C=C(C#N)C(O)c1ccccc1OC` (stereo unspecified) gave a zone of inhibition of 12 mm.

`C=C(C#N)C(O)c1ccc([N+](=O)[O-])cc1` (stereo unspecified): the zone of inhibition with Candida albicans and in the test on Aspergillus niger was 12 mm in each case. The pIC50 in the test with Trypanosoma cruzi [1] is 4.59; with Trypanosoma cruzi [2], 4.55.

`C=C(C#N)C(O)c1ccccc1[N+](=O)[O-]` (stereo unspecified): the zone of inhibition was found to be 13 mm with Candida albicans and 11 mm in the test on Aspergillus niger.

On to `C=C(C(=O)OC)C(O)c1ccccc1[N+](=O)[O-]` (stereo unspecified), for which the zone of inhibition with Candida albicans was 12 mm; in the test with Aspergillus niger it was 11 mm. This compound showed a pIC50 with Leishmania amazonensis of 4.30.

As for `Cc1ccc(S(=O)(=O)NC(/C(=C/c2ccc3c(c2)OCO3)[N+](=O)[O-])c2ccccc2)cc1` (stereo unspecified), the inhibition of growth at 5 µM in the test on HeLa turned out to be 29%.

For the compound `C=C(C#N)C(O)c1ccc(Cl)cc1` (stereo unspecified), the zone of inhibition with Candida albicans came to 13 mm; in the test with Aspergillus niger, 12 mm.

In the test with Candida albicans, `C=C(C(=O)OC)C(O)c1ccc([N+](=O)[O-])cc1` (stereo unspecified) showed a zone of inhibition of 13 mm. The compound also gave a negative-log IC50 (pIC50) in the test on Leishmania amazonensis of 3.71.

Turning to `CC(=O)CC/C(=C/c1ccccc1)[N+](=O)[O-]`, in the test with HeLa, the inhibition of growth at 5 µM is more than 70%.

On to `Cc1ccc(S(=O)(=O)NC(/C(=C/c2ccoc2)[N+](=O)[O-])c2ccccc2)cc1` (stereo unspecified), for which the inhibition of growth at 5 µM with HeLa was determined as 28%.

Consider `C=C(C#N)C(O)c1ccccc1Cl` (stereo unspecified), for which the values for the zone of inhibition with Candida albicans and with Aspergillus niger were 13 mm and 14 mm, respectively.

On to `C=C(C#N)C(O)c1ccc(F)cc1` (stereo unspecified), for which the zone of inhibition worked out at 13 mm with Candida albicans and 11 mm in the test with Aspergillus niger.

For `Cc1ccc(S(=O)(=O)NC(/C(=C/c2cccs2)[N+](=O)[O-])c2ccccc2)cc1` (stereo unspecified), the inhibition of growth at 5 µM in the test with HeLa was 49%.

Take `C=C(C(=O)OCC)C(O)c1cccc([N+](=O)[O-])c1` (stereo unspecified): the zone of inhibition in the test on Candida albicans is 14 mm; with Aspergillus niger it was 13 mm.

As to `Cc1ccc(S(=O)(=O)NC(/C(=C/c2ccsc2)[N+](=O)[O-])c2ccccc2)cc1` (stereo unspecified), the inhibition of growth at 5 µM in the test on HeLa is 45%.

For `C=C(C(=O)OCC)C(O)c1ccc(F)cc1` (stereo unspecified), the zone of inhibition in the test with Candida albicans turned out to be 15 mm; in the test with Aspergillus niger it was 14 mm.

As to `Cc1ccc(S(=O)(=O)NC(/C(=C/c2ccoc2)[N+](=O)[O-])c2ccco2)cc1` (stereo unspecified), in the test on HeLa, the inhibition of growth at 5 µM was determined as 33%.

As to `Cc1ccc(S(=O)(=O)NC(/C(=C/c2ccco2)[N+](=O)[O-])c2ccco2)cc1` (stereo unspecified), the inhibition of growth at 5 µM in the test with HeLa turned out to be 32%.

For the compound `C=C(C#N)C(O)c1cccc([N+](=O)[O-])c1` (stereo unspecified), the results for the zone of inhibition in the test on Candida albicans and in the test on Aspergillus niger were 10 mm and 14 mm, respectively.

As to `C=C(C(=O)OCC)C(O)c1ccc([N+](=O)[O-])cc1` (stereo unspecified), the values for the zone of inhibition with Candida albicans and with Aspergillus niger were 11 mm and 12 mm, respectively.

With `C=C(C(=O)CC)C(O)c1ccc(Cl)cc1` (stereo unspecified), the figures for the zone of inhibition with Candida albicans and in the test with Aspergillus niger were 12 mm and 13 mm, respectively.

For the compound `C=C(C(=O)OCC)C(O)c1ccccc1Cl` (stereo unspecified), the zone of inhibition came out at 13 mm in the test on Candida albicans and 14 mm with Aspergillus niger.

On to `Cc1ccc(S(=O)(=O)NC(/C(=C/c2cccs2)[N+](=O)[O-])c2ccco2)cc1` (stereo unspecified), for which, in the test with HeLa, the inhibition of growth at 5 µM was determined as 28%.

For `COc1ccc(/C=C(/C(NS(=O)(=O)c2ccc(C)cc2)c2ccccc2)[N+](=O)[O-])cc1` (stereo unspecified), the inhibition of growth at 5 µM in the test on HeLa came out at 23%.

On to `C=C(C#N)C(O)c1ccc(Cl)cc1Cl` (stereo unspecified), for which the zone of inhibition came to 11 mm in the test on Candida albicans and 13 mm in the test with Aspergillus niger.

In the case of `COc1ccc(/C=C(/CCC(C)=O)[N+](=O)[O-])cc1`, in the test on HeLa, the inhibition of growth at 5 µM is more than 70%.

Take `Cc1ccc(S(=O)(=O)NC(/C(=C/c2ccco2)[N+](=O)[O-])c2ccccc2)cc1` (stereo unspecified): in the test with HeLa, the inhibition of growth at 5 µM was 44%.

Regarding `COc1ccc(/C=C(/C(NS(=O)(=O)c2ccc(C)cc2)c2ccccc2)[N+](=O)[O-])cc1OC` (stereo unspecified), the inhibition of growth at 5 µM in the test with HeLa is 35%.

`C=C(C(=O)OCC)C(O)c1ccc(Cl)cc1Cl` (stereo unspecified): the zone of inhibition with Candida albicans turned out to be 15 mm; in the test on Aspergillus niger it was 11 mm.

On to `CC(=O)CC/C(=C/c1ccc(Cl)cc1)[N+](=O)[O-]`, for which the inhibition of growth at 5 µM in the test on HeLa was more than 70%.

As for `C=C(C(=O)OCC)C(O)c1ccccc1OC` (stereo unspecified), in the test with Candida albicans, the zone of inhibition amounted to 12 mm.

Regarding `C=C(C(=O)OC)C(O)c1cccc([N+](=O)[O-])c1` (stereo unspecified), the negative-log IC50 (pIC50) in the test on Leishmania amazonensis was 3.35.

These data come from ChEMBL document CHEMBL2046434, “Morita-Baylis-Hillman adducts: biological activities and potentialities to the discovery of new cheaper drugs” (Bioorg Med Chem, 2012).
